Patent US20240158440A1, “PEPTIDE AND COMPOSITION CONTAINING PEPTIDE AS ACTIVE INGREDIENT” (MORINAGA MILK INDUSTRY CO., LTD., priority 2021, published 2024)
No end group written: not given here.

What was measured:
Format in all cases: in vivo
male ddy mice [1] = test: Tail suspension test; details: for Immobile Time: control 99.0; for Immobile Time (second): 30 minutes before the test, control 88.9, *P<0.05 vs Control
Protocol: A tail suspension test used for screening an antidepressant was conducted. When a mouse is hung by fixing its tail and thus put under inescapable conditions, it is believed that the mouse first tries to escape and moves but becomes immobile by despair with the time. On the other hand, in a mouse treated with an antidepressant, the time of escaping behavior increases, and the immobile time decreases. That is, when the immobile time decreases, the drug is evaluated to have an antidepressive effect.
The WPH synthesized in Production Example 1 was administered at a dose of 1 mg, 10 mg or 100 mg per 1 kg body weight to male ddy mice 30 minutes before the test, and 30 minutes later, the mice were hung by fixing their tails to conduct the test (WPH administration group, n=9-11). For six minutes after starting, the time with immobile behavior was recorded.
Moreover, as a control, the same test was conducted using male ddy mice to which the peptide as the test substance was not administered (control group, n=9-11).
From the obtained results, the times (second) with immobile behavior were calculated as an indicator of the antidepressive activity.
The peptide NLPPLT synthesized in Production Example 2 was administered at a dose of 10 μg or 30 μg per 1 kg body weight to male ddy mice 30 minutes before the test, and 30 minutes later, the mice were hung by fixing their tails to conduct the test (peptide NLPPLT administration group, n=5-6). For six minutes after starting, the time with immobile behavior was recorded.
Moreover, as a control, the same test was conducted using male ddy mice to which the peptide as the test substance was not administered (control group, n=5-6). […]

male ddy mice [2] = test: Elevated plus maze test
Text: An elevated plus maze having a plus shape in which two flat plates (arms) of 25 cm×5 cm were crossed was placed at a height of 50 cm from the floor. One type of the arms is closed arms having transparent walls with a height of 15 cm, and a mouse can walk safely without fear of falling. The other arms are open arms without such walls, and the sides are open. […] Through anxiolytic treatment of a mouse, however, the time of stay in the open arms tends to be longer. Thus, in a confirmation test of an anxiolytic action, the anxiolytic activity becomes higher as the time of stay of a mouse in the open arms is longer or as the number of entries is higher. […]
The peptide NLPPLT synthesized in Production Example 2 was administered at a dose of 3 μg or 10 μg per 1 kg body weight to male ddy mice 30 minutes before the test, and 30 minutes later, each mouse was put on the central platform where the open arms crossed the closed arms to conduct the test (peptide NLPPLT administration group, n=6). For five minutes after starting, the total time of stay of the mouse on the open arms (time in open arms), the number of entries into the open arms (visit to open arms) and the total number of entries into the arms (total visits) were recorded.
Moreover, as a control, the same test was conducted using male ddy mice to which the peptide as the test substance was not administered (control group, n=6).
Furthermore, to examine the mechanism of action, the same test was conducted using male ddy mice to which 10 mg/kg of an antagonist of the serotonin 5-HT1A receptor, WAY100135 (manufactured by Tocris Bioscience) was orally administered in addition to 10 μg/kg body weight of the peptide NLPPLT synthesized in Production Example 2 (peptide NLPPLT+serotonin antagonist administration group, n=5).
From the obtained results, the proportions (%) of the time of stay on the open arms and the proportions (%) of the number of entries into the open arms were calculated as indicators of the anxiolytic activity, and the differences with a statistical significance were examined by the Tukey-Kramer method.

male ddy mice [3] = test: Open field test; details: for Proportion (%) of Time of Stay in Center Circle / Proportion (%) of Number of Entries into Center Circle: 30 minutes before the test; for Proportion (%) of Time of Stay in Center Circle: control 0.3; for Proportion (%) of Number of Entries into Center Circle: control 1.5
Protocol: An open field test was conducted as a behavior test used for screening an antianxiety drug. […] […] Here, in this open field test, a circular field consisting of a plurality of concentric circles with a common center with different radii was used. The circle closest to the center in the field is considered as the center of the field, and the time in which a mouse placed in the center of the field stays in the center of the field is measured.
The peptide NLPPLT synthesized in Production Example 2 was administered at a dose of 10 μg, 30 μg or 100 μg per 1 kg body weight to male ddy mice 30 minutes before the test, and 30 minutes later, each mouse was put in the center of the field to conduct the test (peptide NLPPLT administration group, n=5). For five minutes after starting, the time of stay was recorded.
Moreover, as a control, the same test was conducted using male ddy mice to which the peptide as the test substance was not administered (control group, n=5-6).
From the obtained results, the proportions (%) of the time of stay were calculated as an indicator of the anxiolytic activity.

Compound	Immobile Time (male ddy mice [1]; Table 7, NBQX 10 mg/kg (i.p.) alone)	Proportion (%) of Time of Stay on Open Arms (male ddy mice [2]; Table 2, peptide alone (dose not given; 10 μg/kg), control 20.9)	Proportion (%) of Number of Entries into Open Arms (male ddy mice [2]; Table 2, peptide alone (dose not given; 10 μg/kg), control 26.7)	Proportion (%) of Time of Stay on Open Arms (male ddy mice [2]; Table 3, 3 μg/kg, 30 minutes before the test, control 15.4)	Proportion (%) of Number of Entries into Open Arms (male ddy mice [2]; Table 3, 3 μg/kg, 30 minutes before the test, control 22.7)	Proportion (%) of Time of Stay on Open Arms (male ddy mice [2]; Table 3, 10 μg/kg, 30 minutes before the test, control 15.4)	Proportion (%) of Number of Entries into Open Arms (male ddy mice [2]; Table 3, 10 μg/kg, 30 minutes before the test, control 22.7)	Anxiolytic activity (time of stay on / entries into open arms compared to control) (male ddy mice [2]; conclusion in words)	Proportion (%) of Time of Stay in Center Circle (male ddy mice [3]; 0.01 mg/kg)	Proportion (%) of Number of Entries into Center Circle (male ddy mice [3]; 0.01 mg/kg)	Proportion (%) of Time of Stay in Center Circle (male ddy mice [3]; 0.03 mg/kg)	Proportion (%) of Number of Entries into Center Circle (male ddy mice [3]; 0.03 mg/kg)	Proportion (%) of Time of Stay in Center Circle (male ddy mice [3]; 0.1 mg/kg)	Proportion (%) of Number of Entries into Center Circle (male ddy mice [3]; 0.1 mg/kg)	Anxiolytic activity (time of stay in center compared to control) (male ddy mice [3]; conclusion in words)	Immobile Time (second) (male ddy mice [1]; Table 6, 0.01 mg/kg)	Immobile Time (second) (male ddy mice [1]; Table 6, 0.03 mg/kg)	Immobile Time (male ddy mice [1]; Table 7, NLPPLT 0.01 mg/kg (p.o.) alone)	Antidepressive activity (time with immobile behavior compared to control) (male ddy mice [1]; conclusion in words)
NS(=O)(=O)c1cccc2c1c([N+](=O)[O-])cc1nc(O)c(O)nc12 [AMPA Antagonist, NBQX, reference compound]	69.8 s																		
NLPPLT [Peptide NLPPLT]		33.1%	35.1%	19.9%	23.4%	24.4%	31.7%	has an anxiolytic activity	0.6%	1.7%	0.7%	1.6%	0.8%	2.1%	has an anxiolytic activity	15.7* second	27.1* second	23.0 s	has an antidepressive activity
